This assay has as its system Wistar rats. In words: Experimental research on animal ectopic osteogenesis (peptide/collagen sponge implantation). Type of assay: in vivo. The note with it: for ectopic osteogenesis by CT scan imaging: 0.4 mg peptide on collagen sponge implanted in sacral spine muscles, CT at 3, 6, 8 weeks; for ectopic osteogenesis ability (overall result) / formation of new bone by histological examination (HE staining): 0.4 mg peptide/collagen sponge; for formation of new bone by histological examination (HE staining): eighth week. On the procedure: The scaffold material is collagen sponge, the size of which is 5×5×5 mm^3. Three bone morphogenetic protein-2 active peptides are dissolved into saline solution, and then dropped on the collagen sponge in accordance with the 0.4 mg dose. Meanwhile, equivalent saline solution is dropped on the control pure collagen sponge, and freeze-dried for reserve after complete absorption.
(2) groups: 36 Wistar rats are randomly divided into three experimental groups, namely 0.4 mg bone morphogenetic protein-2 active peptide 1/collagen sponge group, 0.4 mg bone morphogenetic protein-2 active peptide 2/[…] group and 0.4 mg bone morphogenetic protein-2 active peptide 3/collagen sponge group, and the control group is using pure collagen sponge.
The anesthesia of rats is achieved by ketamine intraperitoneal injection. For two experimental groups, 0.4 mg bone morphogenetic protein-2 active peptide 1/collagen sponge and 0.4 mg bone morphogenetic protein-2 active peptide 2/collagen sponge are respectively implanted with 1 cm incision in the sacral spine muscles on the back. For […], pure collagen sponge of the same size is implanted into the gaps along one side of sacral spine muscles. CT radiography inspection of three rats groups is done after implantation in the 3, 6, 8 weeks, and then four rats of each group are killed at each time point. Local tissues of implant materials are sampled, after fixation by formaldehyde and paraffin-embedded sections, and histological observation is done with HE staining.

The source of these data is patent publication US7754683B2, “Bioactive peptide of bone morphogenetic protein-2” (priority 2005, dated 2010).

Square brackets hold non-standard residues; d marks the D form. Ends that are not written are not given here. pS = N[C@@H](COP(=O)(O)O)C(=O)O

For “S^[PO4]KIPKASSVPTELSAISTLYLDDD ([pS]KIPKASSVPTELSAISTLYLDDD)”, the “ectopic osteogenesis by CT scan imaging” value is “significant ectopic osteogenesis”, the “ectopic osteogenesis ability (overall result)” value is “good ectopic osteogenesis ability” and the “formation of new bone by histological examination (HE staining)” value is reported as “significant formation of new bone”.
On the same counts, the results for “C16H31O—NH—CCCCGGGS^[PO4]KIPKASSVPTELSAISTLYL” are “significant ectopic osteogenesis”, “good ectopic osteogenesis ability” and “significant formation of new bone”.
On the same counts, the results for “CCCCDDDS^[PO4]KIPKASSVPTELSAISTLYL (CCCCDDD[pS]KIPKASSVPTELSAISTLYL; cysteine pairing not given here)” are “significant ectopic osteogenesis”, “good ectopic osteogenesis ability” and “significant formation of new bone”.
